PubChem BioAssay AID250 (DTP/NCI, 2004)
Values joined by “and” are separate entries in the source; they are usually repeats but may differ in a detail not shown here. Equal values may be shown once. Toxic doses and inconclusive results are not listed.

System: BDF1 mice, L1210 leukemia sc, survival T/C
Experiment: NCI In Vivo Anticancer Drug Screen. Data for tumor model L1210 Leukemia (subcutaneous) in B6D2F1 (BDF1) mice
Settings: higher = longer survival
Method in brief: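 Read-out: T/C ratio, i.e. survival or tumor size in treated mice over that in vehicle-treated controls, from mice bearing transplantable tumors.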

In the case of C[C@]12C=CC(=O)C=C1CC[C@@H]1[C@@H]2C(=O)C[C@@]2(C)[C@H]1CC[C@]2(O)C(=O)CO, the T/C (endpoint: median survival time, dose: 25.0 mg/kg/injection, schedule: Q01DX009 (sc), vehicle: water) is reported as 100 % of control, the T/C (endpoint: median survival time, dose: 50.0 mg/kg/injection, schedule: Q01DX009 (sc), vehicle: water) is reported as 100 % of control and the T/C (endpoint: median survival time, dose: 100.0 mg/kg/injection, schedule: Q01DX009 (sc), vehicle: water) is reported as 100 % of control. The T/C (endpoint: median survival time, dose: 108.0 mg/kg/injection, schedule: Q01DX Z (sc), vehicle: methylcellulose (MC)) was 109 % of control, the T/C (endpoint: median survival time, dose: 140.0 mg/kg/injection, schedule: Q01DX Z (oral), vehicle: water) was 111 % of control and the T/C (endpoint: median survival time, dose: 140.0 mg/kg/injection, schedule: Q02DX Z (sc), vehicle: water) was 122 % of control. The T/C (endpoint: median survival time, dose: 180.0 mg/kg/injection, schedule: Q01DX009 (sc), vehicle: water) was 116 % of control, the T/C (endpoint: median survival time, dose: 180.0 mg/kg/injection, schedule: Q01DX Z (sc), vehicle: methylcellulose (MC)) was 100 % of control and the T/C (endpoint: median survival time, dose: 180.0 mg/kg/injection, schedule: Q02DX009 (sc), vehicle: steriod suspending solution) was 107 % of control. For the same molecule, the T/C (endpoint: median survival time, dose: 180.0 mg/kg/injection, schedule: Q02DX Z (sc), vehicle: steriod suspending solution) was 111 % of control, the T/C (endpoint: median survival time, dose: 200.0 mg/kg/injection, schedule: Q01DX009 (sc), vehicle: water) was 100 % of control and the T/C (endpoint: median survival time, dose: 233.0 mg/kg/injection, schedule: Q01DX Z (oral), vehicle: water) was 111 % of control. For the same molecule, the T/C (endpoint: median survival time, dose: 300.0 mg/kg/injection, schedule: Q01DX Z (sc), vehicle: methylcellulose (MC)) was 109 % of control and 112 % of control, the T/C (endpoint: median survival time, dose: 300.0 mg/kg/injection, schedule: Q02DX009 (sc), vehicle: steriod suspending solution) was 104 % of control and the T/C (endpoint: median survival time, dose: 300.0 mg/kg/injection, schedule: Q02DX Z (sc), vehicle: steriod suspending solution) was 105 % of control. The T/C (endpoint: median survival time, dose: 389.0 mg/kg/injection, schedule: Q01DX Z (oral), vehicle: water) was 116 % of control, the T/C (endpoint: median survival time, dose: 389.0 mg/kg/injection, schedule: Q02DX Z (sc), vehicle: water) was 155 % of control and the T/C (endpoint: median survival time, dose: 400.0 mg/kg/injection, schedule: Q01DX009 (sc), vehicle: water) was 88 % of control and 100 % of control. The T/C (endpoint: median survival time, dose: 500.0 mg/kg/injection, schedule: Q01DX Z (sc), vehicle: methylcellulose (MC)) was 104 % of control and 112 % of control, the T/C (endpoint: median survival time, dose: 500.0 mg/kg/injection, schedule: Q02DX009 (sc), vehicle: steriod suspending solution) was 101 % of control and the T/C (endpoint: median survival time, dose: 500.0 mg/kg/injection, schedule: Q02DX Z (sc), vehicle: steriod suspending solution) was 100 % of control. For the same molecule, the T/C (endpoint: median survival time, dose: 648.0 mg/kg/injection, schedule: Q01DX Z (oral), vehicle: water) was 122 % of control, the T/C (endpoint: median survival time, dose: 800.0 mg/kg/injection, schedule: Q01DX009 (sc), vehicle: water) was 94 % of control and 100 % of control and the T/C (endpoint: median survival time, dose: 833.0 mg/kg/injection, schedule: Q01DX Z (sc), vehicle: methylcellulose (MC)) was 100 % of control and 112 % of control. The T/C (endpoint: median survival time, dose: 833.0 mg/kg/injection, schedule: Q02DX009 (sc), vehicle: steriod suspending solution) was 103 % of control, the T/C (endpoint: median survival time, dose: 833.0 mg/kg/injection, schedule: Q02DX Z (sc), vehicle: steriod suspending solution) was 105 % of control and the T/C (endpoint: median survival time, dose: 1080.0 mg/kg/injection, schedule: Q01DX Z (oral), vehicle: water) was 111 % of control. For the same molecule, the T/C (endpoint: median survival time, dose: 1080.0 mg/kg/injection, schedule: Q02DX Z (sc), vehicle: water) was 155 % of control, the T/C (endpoint: median survival time, dose: 1388.0 mg/kg/injection, schedule: Q02DX009 (sc), vehicle: steriod suspending solution) was 101 % of control and the T/C (endpoint: median survival time, dose: 1388.0 mg/kg/injection, schedule: Q02DX Z (sc), vehicle: steriod suspending solution) was 100 % of control.
In the case of O=C1NC(O)CCN1C1OC(CO)C(O)C1O (configuration not stated), the T/C (endpoint: median survival time, dose: 125.0 mg/kg/injection, schedule: Q06HX018 (sc), vehicle: saline) is reported as 102 % of control, the T/C (endpoint: median survival time, dose: 125.0 mg/kg/injection, schedule: Q## X018 (sc), vehicle: saline) is reported as 102 % of control and the T/C (endpoint: median survival time, dose: 250.0 mg/kg/injection, schedule: Q06HX018 (sc), vehicle: saline) is reported as 102 % of control. For the same molecule, the T/C (endpoint: median survival time, dose: 250.0 mg/kg/injection, schedule: Q## X018 (sc), vehicle: saline) was 102 % of control, the T/C (endpoint: median survival time, dose: 500.0 mg/kg/injection, schedule: Q06HX018 (sc), vehicle: saline) was 108 % of control and the T/C (endpoint: median survival time, dose: 500.0 mg/kg/injection, schedule: Q## X018 (sc), vehicle: saline) was 108 % of control. For the same molecule, the T/C (endpoint: median survival time, dose: 1000.0 mg/kg/injection, schedule: Q06HX018 (sc), vehicle: saline) was 107 % of control and the T/C (endpoint: median survival time, dose: 1000.0 mg/kg/injection, schedule: Q## X018 (sc), vehicle: saline) was 107 % of control.
With CCN1C=C/C(=C\C=C/c2cc[n+](CC)c3ccccc23)c2ccccc21 the T/C (endpoint: median survival time, dose: 0.05 mg/kg/injection, schedule: Q01DX Z (sc), vehicle: methylcellulose (MC)) was 100 % of control, the T/C (endpoint: median survival time, dose: 0.08 mg/kg/injection, schedule: Q01DX Z (sc), vehicle: methylcellulose (MC)) was 100 % of control and the T/C (endpoint: median survival time, dose: 0.14 mg/kg/injection, schedule: Q01DX Z (sc), vehicle: methylcellulose (MC)) was 100 % of control. For the same molecule, the T/C (endpoint: median survival time, dose: 0.23 mg/kg/injection, schedule: Q01DX Z (sc), vehicle: methylcellulose (MC)) was 100 % of control, the T/C (endpoint: median survival time, dose: 0.39 mg/kg/injection, schedule: Q01DX Z (sc), vehicle: methylcellulose (MC)) was 100 % of control and the T/C (endpoint: median survival time, dose: 0.65 mg/kg/injection, schedule: Q01DX Z (sc), vehicle: methylcellulose (MC)) was 100 % of control. The T/C (endpoint: median survival time, dose: 1.08 mg/kg/injection, schedule: Q01DX Z (sc), vehicle: methylcellulose (MC)) was 100 % of control, the T/C (endpoint: median survival time, dose: 1.8 mg/kg/injection, schedule: Q01DX Z (sc), vehicle: methylcellulose (MC)) was 111 % of control and the T/C (endpoint: median survival time, dose: 3.0 mg/kg/injection, schedule: Q01DX Z (sc), vehicle: methylcellulose (MC)) was 105 % of control.
In the case of CCOC(C)C(=O)C=O (configuration not stated), the T/C (endpoint: median survival time, dose: 23.0 mg/kg/injection, schedule: Q01DX Z (sc), vehicle: water) is reported as 100 % of control, the T/C (endpoint: median survival time, dose: 39.0 mg/kg/injection, schedule: Q01DX Z (sc), vehicle: water) is reported as 100 % of control and the T/C (endpoint: median survival time, dose: 65.0 mg/kg/injection, schedule: Q01DX Z (sc), vehicle: water) is reported as 100 % of control. The T/C (endpoint: median survival time, dose: 108.0 mg/kg/injection, schedule: Q01DX Z (sc), vehicle: water) was 100 % of control, the T/C (endpoint: median survival time, dose: 180.0 mg/kg/injection, schedule: Q01DX Z (sc), vehicle: water) was 100 % of control and the T/C (endpoint: median survival time, dose: 300.0 mg/kg/injection, schedule: Q01DX Z (sc), vehicle: water) was 100 % of control. The T/C (endpoint: median survival time, dose: 500.0 mg/kg/injection, schedule: Q01DX Z (sc), vehicle: water) was 105 % of control.
With COCCCN=C(N)c1ccc(NC(=O)c2ccc(C(=O)Nc3ccc(C(N)=NCCCOC)cc3)cc2)cc1 the T/C (endpoint: median survival time, dose: 8.4 mg/kg/injection, schedule: Q01DX Z (sc), vehicle: saline) was 158 % of control and the T/C (endpoint: median survival time, dose: 39.0 mg/kg/injection, schedule: Q01DX Z (sc), vehicle: saline) was 100 % of control.
CN(C)CCNc1ccc([N+](=O)[O-])c2sc3ccccc3c(=O)c12 was tested, and the T/C (endpoint: median survival time, dose: 14.0 mg/kg/injection, schedule: Q01DX Z (sc), vehicle: carboxymethylcellulose (CMC)) was 100 % of control, the T/C (endpoint: median survival time, dose: 23.0 mg/kg/injection, schedule: Q01DX Z (sc), vehicle: carboxymethylcellulose (CMC)) was 100 % of control and the T/C (endpoint: median survival time, dose: 39.0 mg/kg/injection, schedule: Q01DX Z (sc), vehicle: carboxymethylcellulose (CMC)) was 100 % of control. The T/C (endpoint: median survival time, dose: 65.0 mg/kg/injection, schedule: Q01DX Z (sc), vehicle: carboxymethylcellulose (CMC)) was 100 % of control and 111 % of control, the T/C (endpoint: median survival time, dose: 108.0 mg/kg/injection, schedule: Q01DX Z (sc), vehicle: carboxymethylcellulose (CMC)) was 100 % of control and the T/C (endpoint: median survival time, dose: 180.0 mg/kg/injection, schedule: Q01DX Z (sc), vehicle: carboxymethylcellulose (CMC)) was 111 % of control. The T/C (endpoint: median survival time, dose: 300.0 mg/kg/injection, schedule: Q01DX Z (sc), vehicle: carboxymethylcellulose (CMC)) was 105 % of control.
With CC(=O)NC(CS)C(=O)O (configuration not stated) the T/C (endpoint: median survival time, dose: 600.0 mg/kg/injection, schedule: Q01DX001 (ip), vehicle: saline) was 94 % of control and 97 % of control, the T/C (endpoint: median survival time, dose: 600.0 mg/kg/injection, schedule: Q01DX015 (ip), vehicle: saline) was 94 % of control and 97 % of control and the T/C (endpoint: median survival time, dose: 600.0 mg/kg/injection, schedule: Q07DX003 (ip), vehicle: saline) was 94 % of control and 97 % of control. The T/C (endpoint: median survival time, dose: 1000.0 mg/kg/injection, schedule: Q01DX001 (ip), vehicle: saline) was 94 % of control and 96 % of control, the T/C (endpoint: median survival time, dose: 1000.0 mg/kg/injection, schedule: Q01DX015 (ip), vehicle: saline) was 103 % of control and 105 % of control and the T/C (endpoint: median survival time, dose: 1000.0 mg/kg/injection, schedule: Q07DX003 (ip), vehicle: saline) was 99 % of control and 100 % of control.
For CN(Cc1cnc2nc(N[Si](C)(C)C)nc(N[Si](C)(C)C)c2n1)c1ccc(C(=O)NC(CCC(=O)O[Si](C)(C)C)C(=O)O[Si](C)(C)C)cc1 (configuration not stated), the T/C (endpoint: mean survival time, dose: 1.0 mg/kg/injection, schedule: Q01DX009 (ip), vehicle: Klucel (hydroxypropylcellulose) (HPC)) was 150 % of control, the T/C (endpoint: mean survival time, dose: 2.0 mg/kg/injection, schedule: Q01DX009 (ip), vehicle: Klucel (hydroxypropylcellulose) (HPC)) was 169 % of control and the T/C (endpoint: mean survival time, dose: 4.0 mg/kg/injection, schedule: Q01DX009 (ip), vehicle: Klucel (hydroxypropylcellulose) (HPC)) was 176 % of control. The T/C (endpoint: mean survival time, dose: 8.0 mg/kg/injection, schedule: Q01DX009 (ip), vehicle: Klucel (hydroxypropylcellulose) (HPC)) was 169 % of control, the T/C (endpoint: mean survival time, dose: 8.0 mg/kg/injection, schedule: Q04DX003 (ip), vehicle: Klucel (hydroxypropylcellulose) (HPC)) was 156 % of control and the T/C (endpoint: mean survival time, dose: 16.0 mg/kg/injection, schedule: Q01DX009 (ip), vehicle: Klucel (hydroxypropylcellulose) (HPC)) was 119 % of control. The T/C (endpoint: mean survival time, dose: 32.0 mg/kg/injection, schedule: Q04DX003 (ip), vehicle: Klucel (hydroxypropylcellulose) (HPC)) was 160 % of control and the T/C (endpoint: mean survival time, dose: 64.0 mg/kg/injection, schedule: Q04DX003 (ip), vehicle: Klucel (hydroxypropylcellulose) (HPC)) was 160 % of control.
